Measurements from article PMC11845477, “Exploring the principles behind antibiotics with limited resistance” (Nature Communications, 2025).
Where a SMILES comes first, the peptide text is derived from it. Bridges are numbered along the chain shown (N, C = ends). [ ]: non-standard residue; d: D form. The star is where a group is joined. X1 = NC[C@@H](CC(=O)*)c1cccc(Cl)c1; X2 = CC[C@H](C)CCCCC(=O)*; Dab = NCC[C@H](N)C(=O)O; Dap = NC[C@H](N)C(=O)O

Assays:
[1] = test system: polymyxin B-resistant lines of P. aeruginosa (PA-SEN); assay: Cross-resistance of polymyxin B resistant evolved lines, relative MIC; type: cell-based, Pseudomonas aeruginosa
Excerpt: (§1) To further investigate potential overlaps in resistance mechanisms, we examined the extent of cross-resistance between polymyxin B and other antibiotics that target the bacterial membrane.
(§2) Fig. 7 Cross-resistance of polymyxin B resistant lines to ST and DT permeabilizer antibiotics. […] 3 independently evolved lines from each investigated species were studied, including E. coli (EC), K. pneumoniae (KP), A. baumannii (AB), and P. aeruginosa (PA). Gray color of the main heatmap indicates combinations not tested due to intrinsic resistance of ancestor strain. The additional heatmap to the right depicts genes mutated in each polymyxin B-adapted line and their involvement in specific cellular processes based on KEGG (Kyoto Encyclopedia of Genes and Genomes) and COG (Clusters of Orthologous Genes) databases. The distances between antibiotics were computed using the Euclidean distance method based on the log-transformed MIC values. The clustering was performed using the complete linkage method. […] For detailed information on antibiotic and bacterial strain abbreviations, see Supplementary Data 1. Source data are provided as a Source Data file.
(§3) A robotic liquid handling system was used to automatically prepare a 11 to 16-step serial dilution in 384-well microtiter plates (Greiner). A final concentration of 5 × 10^5 bacterial cells per mL were inoculated into each well containing 60 µL MHB medium. Bacterial cultures were incubated at 37 °C with continuous shaking (Infors shaker, 900 rpm with 3 mm throw) for 18 hours (2 replicates from each). Cell growth was monitored by measuring the optical density (OD600 values, using Biotek Synergy microplate reader). MIC was defined as the antibiotic concentration of complete growth inhibition (i.e., OD600 < 0.05). Relative MIC was calculated as follows:1 relativeMIC=MICevolved/MICancestor […]
(§4) Supplementary Figure 6. Susceptibility of Polymyxin B resistant lines to other ST and DT […]
(§5) dividing the MIC of the evolved line by that of the corresponding ancestor) of 12 polymyxin B resistant lines to ST and DT permeabilizer antibiotics used in this study. Each data point represents a distinct adaptive laboratory evolved polymyxin B resistant line. Boxplots show the median, first and third quartiles, with whiskers showing the 5th and 95th percentiles. P values were calculated using Dunn's post-hoc test with Benjamini-Hochberg correction (NS indicates p > 0.05, ** / **** indicates p < 0.01 / 0.0001, respectively). The resistance level of polymyxin B resistant lines to polymyxin B (PMB), […]
(§6) For detailed information on antibiotic and bacterial strain abbreviations, see Supplementary Table 1. Source data are provided as a Source […]
(§7) (1 picture or pasted object on this page, not shown here)

[2] = test system: polymyxin B-resistant lines of A. baumannii (AB-SEN); assay: as above; type: cell-based, Acinetobacter baumannii
Excerpt: as §1, §2, §3, §4, §5, §6, §7

E. coli ATCC25922 = assay: Dose-response killing curves (99.9% killing concentration, Hill coefficient); type: cell-based, Escherichia coli; details: dose-response killing curve; for 99.9% killing (10^-3): unit not given
Excerpt: Fig. 9 Killing kinetics of the studied antibiotics. a Bacterial survival rate in response to toxic antibiotic exposure. […] The bars indicate the survival rate (log10) compared to the untreated initial viable cell count (see “Methods”). Data are presented as mean values of 5 biological replicates ± SEM. The antibiotic group differentiation is denoted by color. […] Survival was estimated by measuring cell viability (colony-forming units/ml) of 2 biologically independent strains following a 4-hour exposure to different concentrations of 16 antibiotics on E. coli ATCC25922 (for further details, see “Methods”). The antibiotic concentration that kills 99.9% of the E. coli population is indicated as a vertical dotted line (see Supplementary Data 5). Error bars represent standard error calculated from the colony counts by Poisson’s model. A Hill function was fitted to the dose-response data from two biological replicates, producing sigmoidal curves (Supplementary Data 5). The Hill coefficient reflects how steeply the survival rate decreases in response to increasing antibiotic concentration ([…]). […] X-axis label colors indicate mode of action groups. For detailed information on antibiotic and bacterial species, see Supplementary Data 1. Source data are provided as a Source Data file.
To test the dose range under which resistance can evolve, we employed advanced microplating and automated image analysis. We quantified bacterial population survival at varying antibiotic concentrations[62] (see “Methods”) in E. coli. Briefly, we generated dose-response curves and investigated how steeply the killing effect increases as the antibiotic concentration rises. In specific, the Hill coefficient representing each bacterial strain-antibiotic combination was calculated to quantify dose-kill kinetics.
In this current study, the killing kinetics of each antibiotic was measured according to a previously established experimental protocol[62] with minor modifications. During this assay, the bacterial cultures were exposed to antibiotics in 96-well assay plates and their viability after 4 hours of exposure was quantified by two methods: i) microplating and colony counting or ii) fluorescent staining of cells and counting of the fluorescent units.
Specifically, these experiments were performed in the following steps: (1) Preparation of bacterial stocks. Single colonies from each strain were isolated and grown overnight in MHB medium at 37 °C, 160 rpm. In case of the fluorescently tagged E. coli strains, the medium was supplemented with 10 μg/mL chloramphenicol, to maintain the pZS2R plasmid. Overnight cultures were diluted 1:5000 and grown to an optical density at 600 nm (OD600) of 0.25. These cultures were concentrated by centrifugation and small aliquots of 50 μL containing ~2.2 × 10^9 cells were frozen in glycerol (stored at −80 °C). (2) Preparing assay plates with antibiotics. 96-well plates were filled with 235 μL MHB and supplemented with antibiotics using an automated digital dispenser (D300e, Tecan). In the case of SCH79797, we used minimal media. […] For testing the clearance efficacy of each antibiotic at a single lethal dose, the 10x of the MIC for each antibiotic-strain pair were prepared in at least three replicates. (3) Antibiotic exposure. During the dose response assay, frozen cultures of the E. coli strains expressing YFP and mCherry were thawed and mixed at a 1:1 ratio, diluted 1:1000 in 30 mL MHB and incubated for 45 min at 37 °C and 160 rpm. During the single-dose assay, the frozen cultures of experimental strains (E. coli, K. pneumoniae, A. baumannii) were also thawed and diluted 1:1000 in 30 mL MHB and incubated at 37 °C to reach an OD of 0.25 and 160 rpm.

[3] = PA-SEN, polymyxin B-resistant evolved line 1, MIC evolved/MIC ancestor
[4] = PA-SEN, polymyxin B-resistant evolved line 5, MIC evolved/MIC ancestor
[5] = PA-SEN, polymyxin B-resistant evolved line 7, MIC evolved/MIC ancestor
[6] = polymyxin B-resistant evolved line 1 of PA-SEN, MIC relative to ancestor
[7] = polymyxin B-resistant evolved line 5 of PA-SEN, MIC relative to ancestor
[8] = polymyxin B-resistant evolved line 7 of PA-SEN, MIC relative to ancestor
[9] = AB-SEN, polymyxin B-resistant evolved line 2, MIC evolved/MIC ancestor
[10] = AB-SEN, polymyxin B-resistant evolved line 6, MIC evolved/MIC ancestor
[11] = AB-SEN, polymyxin B-resistant evolved line 9, MIC evolved/MIC ancestor
[12] = polymyxin B-resistant evolved line 2 of AB-SEN, MIC relative to ancestor
[13] = polymyxin B-resistant evolved line 6 of AB-SEN, MIC relative to ancestor
[14] = polymyxin B-resistant evolved line 9 of AB-SEN, MIC relative to ancestor

Row | Compound | Relative MIC [1, 3] | Relative MIC [1, 4] | Relative MIC [1, 5] | Relative MIC [1, 6] | Relative MIC [1, 7] | Relative MIC [1, 8] | Relative MIC [2, 9] | Relative MIC [2, 10] | Relative MIC [2, 11] | Relative MIC [2, 12] | Relative MIC [2, 13] | Relative MIC [2, 14] | Steepness (Hill Coefficient) (E. coli ATCC25922) | 99.9% killing (10^-3) (E. coli ATCC25922)
1 | CC[C@H](C)CCCCC(=O)N[C@@H](CCN)C(=O)N[C@H](C(=O)N[C@@H](CCN)C(=O)N[C@H]1CCNC(=O)[C@H]([C@@H](C)O)NC(=O)[C@H](CCN)NC(=O)[C@H](CCN)NC(=O)[C@H](CC(C)C)NC(=O)[C@@H](Cc2ccccc2)NC(=O)[C@H](CCN)NC1=O)[C@@H](C)O [Polymyxin B] (X2-[Dab]T[Dab][Dab][Dab][dF]L[Dab][Dab]T; lactam 4-C (inferred); N-terminus assumed) | 32 | 32 | 8 | 32 | 32 | 8 | 64 | 1024 | 64 | 64 | 1024 | 64 | 46.82 | 1.08
2 | CC(C)c1ccc(Cn2ccc3c4c(N)nc(NC5CC5)nc4ccc32)cc1 [SCH79797] | – | – | – | – | – | – | 1 | 0.5 | 1 | 1 | 0.5 | 1 | 16.39 | 4.31
3 | CC(C)C[C@@H]1NC(=O)[C@@H](Cc2ccccc2)NC(=O)[C@H](CCN)NC(=O)[C@@H](NC(=O)[C@H](CN)NC(=O)[C@@H](NC(=O)C[C@H](CN)c2cccc(Cl)c2)[C@@H](C)O)CCNC(=O)[C@H]([C@@H](C)O)NC(=O)[C@H](CCN)NC(=O)[C@H](CCN)NC1=O [SPR206] (X1-T[Dap][Dab][Dab][dF]L[Dab][Dab]T; lactam 3-C (inferred); N-terminus assumed) | 64 | 64 | 32 | 64 | 64 | 32 | 128 | 2048 | 128 | 128 | 2048 | 128 | 59.45 | 0.18
4 | C[C@@H](O)[C@H]1C(=O)N2C(C(=O)O)=C(S[C@H]3CC[S@@+]([O-])C3)S[C@H]12 [Sulopenem] | – | – | – | – | – | – | – | – | – | – | – | – | 1.03 | 0.18
5 | POL7306 | 1 | 1 | 4 | 1 | 1 | 4 | 32 | 32 | 8 | 32 | 32 | 8 | 43.61 | 2.31
6 | Tridecaptin M152-P3 | – | – | – | – | – | – | – | – | – | – | – | – | 18.9 | 4.73
7 | colistin | 32 | 32 | 16 | 32 | 32 | 16 | 32 | 512 | 32 | 32 | 512 | 32 | – | –
